Assay results taken from PubChem BioAssay AID1259407 (Chemical Carcinogenesis Research Information System (CCRIS), 2018).
Activity calls are given as the source filed them. No rule for the calls is given here.

Tested on: CCRIS mutagenicity, Ames/micronucleus/aberration tests
Experiment: CCRIS mutagenicity studies
[1] = Test System: AMES SALMONELLA TYPHIMURIUM, Strain/Indicator: TA98, Metabolic Activation: NONE, Method: STANDARD PLATE
[2] = Test System: AMES SALMONELLA TYPHIMURIUM, Strain/Indicator: TA100, Metabolic Activation: NONE, Method: STANDARD PLATE
[3] = Test System: AMES SALMONELLA TYPHIMURIUM, Strain/Indicator: TA98, Metabolic Activation: NONE, Method: PREINCUBATION
[4] = Test System: AMES SALMONELLA TYPHIMURIUM, Strain/Indicator: TA100, Metabolic Activation: NONE, Method: PREINCUBATION
[5] = Test System: AMES SALMONELLA TYPHIMURIUM, Strain/Indicator: TA1535, Metabolic Activation: NONE, Method: PREINCUBATION
[6] = Test System: AMES SALMONELLA TYPHIMURIUM, Strain/Indicator: TA1537, Metabolic Activation: NONE, Method: PREINCUBATION
[7] = Test System: AMES SALMONELLA TYPHIMURIUM, Strain/Indicator: TA98, Metabolic Activation: RAT, LIVER, S-9, AROCLOR 1254, Method: PREINCUBATION

OCc1cccc2c1-c1cccc3cccc-2c13
mutagenic call [1]: inactive; negative | mutagenic call [2]: inactive; negative

COC/C(=C/c1ccccc1)OC
mutagenic call (Test System: AMES SALMONELLA TYPHIMURIUM, Strain/Indicator: TA97, Metabolic Activation: NONE, Method: STANDARD PLATE): inactive; negative | mutagenic call (Test System: AMES SALMONELLA TYPHIMURIUM, Strain/Indicator: TA97, Metabolic Activation: RAT, LIVER, S-9, AROCLOR 1254, Method: STANDARD PLATE): inactive; negative | mutagenic call [1]: inactive; negative | mutagenic call (Test System: AMES SALMONELLA TYPHIMURIUM, Strain/Indicator: TA98, Metabolic Activation: RAT, LIVER, S-9, AROCLOR 1254, Method: STANDARD PLATE): inactive; negative | mutagenic call [2]: inactive; negative | mutagenic call (Test System: AMES SALMONELLA TYPHIMURIUM, Strain/Indicator: TA100, Metabolic Activation: RAT, LIVER, S-9, AROCLOR 1254, Method: STANDARD PLATE): inactive; negative | mutagenic call (Test System: AMES SALMONELLA TYPHIMURIUM, Strain/Indicator: TA1535, Metabolic Activation: NONE, Method: STANDARD PLATE): inactive; negative | mutagenic call (Test System: AMES SALMONELLA TYPHIMURIUM, Strain/Indicator: TA1535, Metabolic Activation: RAT, LIVER, S-9, AROCLOR 1254, Method: STANDARD PLATE): inactive; negative | mutagenic call (Test System: AMES SALMONELLA TYPHIMURIUM, Strain/Indicator: TA1537, Metabolic Activation: NONE, Method: STANDARD PLATE): active; positive | mutagenic call (Test System: AMES SALMONELLA TYPHIMURIUM, Strain/Indicator: TA1537, Metabolic Activation: RAT, LIVER, S-9, AROCLOR 1254, Method: STANDARD PLATE): inactive; negative | mutagenic call (Test System: AMES SALMONELLA TYPHIMURIUM, Strain/Indicator: TA1538, Metabolic Activation: NONE, Method: STANDARD PLATE): inactive; negative | mutagenic call (Test System: AMES SALMONELLA TYPHIMURIUM, Strain/Indicator: TA1538, Metabolic Activation: RAT, LIVER, S-9, AROCLOR 1254, Method: STANDARD PLATE): inactive; negative

CC(=O)/C=C/c1ccc2c(c1)OCO2
mutagenic call (Test System: AMES SALMONELLA TYPHIMURIUM, Strain/Indicator: TA98, Metabolic Activation: HAMSTER, LIVER, S-9, AROCLOR 1254 (10%), Method: PREINCUBATION): inactive; negative | mutagenic call [3]: inactive; negative | mutagenic call (Test System: AMES SALMONELLA TYPHIMURIUM, Strain/Indicator: TA98, Metabolic Activation: RAT, LIVER, S-9, AROCLOR 1254 (10%), Method: PREINCUBATION): inactive; negative | mutagenic call (Test System: AMES SALMONELLA TYPHIMURIUM, Strain/Indicator: TA100, Metabolic Activation: HAMSTER, LIVER, S-9, AROCLOR 1254 (10%), Method: PREINCUBATION): inactive; negative | mutagenic call [4]: inactive; negative | mutagenic call (Test System: AMES SALMONELLA TYPHIMURIUM, Strain/Indicator: TA100, Metabolic Activation: RAT, LIVER, S-9, AROCLOR 1254 (10%), Method: PREINCUBATION): inactive; negative | mutagenic call (Test System: AMES SALMONELLA TYPHIMURIUM, Strain/Indicator: TA1535, Metabolic Activation: HAMSTER, LIVER, S-9, AROCLOR 1254 (10%), Method: PREINCUBATION): inactive; negative | mutagenic call [5]: inactive; negative | mutagenic call (Test System: AMES SALMONELLA TYPHIMURIUM, Strain/Indicator: TA1535, Metabolic Activation: RAT, LIVER, S-9, AROCLOR 1254 (10%), Method: PREINCUBATION): inactive; negative | mutagenic call (Test System: AMES SALMONELLA TYPHIMURIUM, Strain/Indicator: TA1537, Metabolic Activation: HAMSTER, LIVER, S-9, AROCLOR 1254 (10%), Method: PREINCUBATION): inactive; negative | mutagenic call [6]: inactive; negative | mutagenic call (Test System: AMES SALMONELLA TYPHIMURIUM, Strain/Indicator: TA1537, Metabolic Activation: RAT, LIVER, S-9, AROCLOR 1254 (10%), Method: PREINCUBATION): inactive; negative

NC(=O)Oc1ccccc1
mutagenic call (Test System: E. COLI, Strain/Indicator: WP2 UVRA, Metabolic Activation: NONE, Method: FLUCTUATION TEST): inactive; negative

Nc1ccc(Nc2ccc([N+](=O)[O-])cc2)cc1
mutagenic call (Test System: AMES SALMONELLA TYPHIMURIUM, Strain/Indicator: TA98(NR), Metabolic Activation: NONE, Method: PREINCUBATION): inactive; negative | mutagenic call [3]: active; positive | mutagenic call [7]: active; positive

Cc1ccc(C)c2c1[nH]c1ccccc12
mutagenic call [1]: inactive; negative | mutagenic call (Test System: AMES SALMONELLA TYPHIMURIUM, Strain/Indicator: TA98, Metabolic Activation: RAT LIVER S-9, AROCLOR 1254, Method: STANDARD PLATE): active; positive | mutagenic call [2]: inactive; negative | mutagenic call (Test System: AMES SALMONELLA TYPHIMURIUM, Strain/Indicator: TA100, Metabolic Activation: RAT LIVER S-9, AROCLOR 1254, Method: STANDARD PLATE): inactive; negative

C=CCOC(=O)CC(C)C
mutagenic call (End Point: IN VITRO CHROMOSOMAL ABERRATIONS, Test System: CHO CELLS, Metabolic Activation: NONE): inactive; negative | mutagenic call (Test System: AMES SALMONELLA TYPHIMURIUM, Strain/Indicator: TA98, Metabolic Activation: HAMSTER, LIVER, S-9, AROCLOR 1254, Method: PREINCUBATION): inactive; negative | mutagenic call [3]: inactive; negative | mutagenic call [7]: inactive; negative | mutagenic call (Test System: AMES SALMONELLA TYPHIMURIUM, Strain/Indicator: TA100, Metabolic Activation: HAMSTER, LIVER, S-9, AROCLOR 1254, Method: PREINCUBATION): inactive; negative | mutagenic call [4]: inactive; negative | mutagenic call (Test System: AMES SALMONELLA TYPHIMURIUM, Strain/Indicator: TA100, Metabolic Activation: RAT, LIVER, S-9, AROCLOR 1254, Method: PREINCUBATION): inactive; negative | mutagenic call (Test System: AMES SALMONELLA TYPHIMURIUM, Strain/Indicator: TA1535, Metabolic Activation: HAMSTER, LIVER, S-9, AROCLOR 1254, Method: PREINCUBATION): inactive; negative | mutagenic call [5]: inactive; negative | mutagenic call (Test System: AMES SALMONELLA TYPHIMURIUM, Strain/Indicator: TA1535, Metabolic Activation: RAT, LIVER, S-9, AROCLOR 1254, Method: PREINCUBATION): inactive; negative | mutagenic call (Test System: AMES SALMONELLA TYPHIMURIUM, Strain/Indicator: TA1537, Metabolic Activation: HAMSTER, LIVER, S-9, AROCLOR 1254, Method: PREINCUBATION): inactive; negative | mutagenic call [6]: inactive; negative | mutagenic call (Test System: AMES SALMONELLA TYPHIMURIUM, Strain/Indicator: TA1537, Metabolic Activation: RAT, LIVER, S-9, AROCLOR 1254, Method: PREINCUBATION): inactive; negative
